Test results: patent publication US8193175B2, “Ruthenium complexes for treating cancers” (Universite de Strasbourg, priority 2004, dated 2012)

Tests used:
[1] = tested on: MOLT-4; experiment: Proliferation test (UptiBlue) on MOLT-4; type: cell-based, human; settings: p53 expressing line; read-out: IC50, proliferation of MOLT-4 cells
Method: (§1) The products are tested on different cell lines. The cells used are RDM4 from a murine T lymphoma and a MOLT-4 line originating from an acute lymphoblastic leukemia. These cancer lines both express the p53 protein, unlike the HL-60 cells from a human promyelocytary leukemia where, following deletion of its gene, p53 is absent.
(§2) All of these cells are cultivated in RPMI 1640-Glutamax, supplemented by 10% calf foetal serum heat inactivated at 56° C. for 30 minutes, 1 mM sodium pyruvate, 1 mM non-essential amino acids and 50 μg/mL gentamycine (Life Technologies, Cergy Pontoise, France). The cultures are kept in an incubator at 37° C. with a moisture saturated atmosphere, with 5% CO2.
This test uses the UptiBlue reagent (Interchim, Montluçon, France), metabolised by the living cells. The cells are incubated on plates with 96 wells with 10^4 cells/well (200 μL) with the product and cultivated for 72 hours. Then, 20 μL UptiBlue are added to each well. After 3 hours incubation, the fluorescence of the samples contained in the plates is measured at 590 nm (excitation at 560 nm), using a Fluorolite 1000 microplate reader (Dynex technologies, Issy-Les-Moulineaux, France). […]

[2] = Preliminary toxicity experiment on healthy SWISS mice; type: in vivo; settings: small number of healthy SWISS mice
[3] = tested on: TK6 and NH32 cells; experiment: Apoptosis by marking with Annexin-V on TK6 and NH32 cells; type: cell-based, human; settings: 1.5 μM
Method: The toxicity of the organoruthenium complex on the TK6 and NH32 lymphoblastoid cells is measured with Annexin-V—a specific marker of precocious apoptosis. This marking is implemented on cells treated with derivative 11 at 1.5 μM after 0 hrs, 24 hrs, 48 hrs, 72 hrs and 96 hrs. […] Beyond 72 hrs, the apoptosis reaches the maximum limit of 90% and forms a plateau. In the control cells, the apoptosis rate remains less than 10% for the whole of the experiment. The increase over time of the externalisation of the anionic phospholipids is similar in the two cell lines, but the TK6 cells enter into apoptosis with a delay of a dozen hours on their p53-deficient variants. The NH32 line reaches the limit formed by the 90% plateau earlier than the TK6 cells. The p53 protein seems to slow down activation of the precocious signs of apoptosis induced by the Ru complexes.

[4] = tested on: RDM4 line; experiment: Proliferation test (UptiBlue) on RDM4 line; type: cell-based, mouse; settings: 72 hours
Method: as §1, §2
This test uses the UptiBlue reagent (Interchim, Montluçon, France), metabolised by the living cells. The cells are incubated on plates with 96 wells with 10^4 cells/well (200 μL) with the product and cultivated for 72 hours. Then, 20 μL UptiBlue are added to each well. After 3 hours incubation, the fluorescence of the samples contained in the plates is measured at 590 nm (excitation at 560 nm), using a Fluorolite 1000 microplate reader (Dynex technologies, Issy-Les-Moulineaux, France).
The potential anti-cancers are first of all selected on the RDM4 line. The effect of the different organo-ruthenium compounds upon the cell viability is firstly determined by a proliferation test as a function of the product concentration. The activity of the compounds derived from Ru is compared to that of cisplatinum. The exposure of the RDM4 cells to these derivatives is translated by a dose-dependent reduction in their proliferation. Therefore, the effect is dependent upon the organic complex which surrounds the Ru nucleus. The inhibition concentration of the growth of 50% of the cells (IC50) is determined for each of the products. […] The ruthenium derivatives showing an excessive IC50 (>50 μM) were eliminated from the biological study.

Compound | IC50 [1] [µM] | apparent toxicity [2] | externalisation of the phosphatidylserines (Annexin-V) ([3]; 48 hrs) | externalisation of the phosphatidylserines (Annexin-V) ([3]; 72 hrs of continuous treatment) [%] | IC50 [4] [µM]
N.N.[Cl][Pt][Cl] [Cisplatinum, reference compound] | < 0.5 |  |  |  | 
[Ru(C6H4-2-C5H4N)(phen)(NCMe)2]PF6 [Compound 11] |  | lack of apparent toxicity | exceeds 50% | 90 | 11
